This assay addresses GSK-3 (Homo sapiens, UniProt P49841). Description: GSK-3 inhibition, cell-free 33P-ATP peptide substrate SPA assay. In kind it is biochemical. Conditions: read-out: inhibitory activity against GSK-3, expressed as IC50. As for the experimental part: The specific activity of a compound, stereoisomer, or prodrug of formula (I) in inhibiting GSK-3 can be determined in both cell-free and cell-based assays, both of which have been previously described in the relevant art. See, for example, U.S. Pat. Nos. 6,417,185 and 6,489,344, the disclosures of which are incorporated herein by reference in their entirety.
A cell-free assay can be generally carried out by incubating GSK-3 with a peptide substrate, radiolabeled ATP (e.g., for example, γ^33P- or γ^32P-ATP, both of which are available from Amersham; Arlington Heights, Ill.), magnesium ions, and the compound to be assayed. […] The amount of γ^33P or […] remaining in each well after washing is then quantified to determine the amount of radiolabeled phosphate incorporated into the peptide substrate. […]
Another example of a GSK-3 assay, similar to the one described hereinabove, is as follows: enzyme activities are assayed as the incorporation of ^33P from gamma phosphate of ^33P-ATP (Amersham; Arlington Heights, Ill.; catalog #AH-9968) into biotinylated peptide substrate PKTP-KKAKKL. […] The final concentration of ATP is 0.5 μM (final specific radioactivity of […]), and the final concentration of substrate is 0.75 μM. […] Radioactivity associated with the beads is then quantified by scintillation counting. […]

Among the data in US7300944B2, “Pyrazolo[3,4-b]pyridin-6-ones as GSK-3 inhibitors” (Pfizer Inc., priority 2003, dated 2007) are IC50 values, retold here.

The structures appear in SMILES notation. pIC50: −log10 of the molar value.

Sequence of GSK-3 (P49841 whole entry): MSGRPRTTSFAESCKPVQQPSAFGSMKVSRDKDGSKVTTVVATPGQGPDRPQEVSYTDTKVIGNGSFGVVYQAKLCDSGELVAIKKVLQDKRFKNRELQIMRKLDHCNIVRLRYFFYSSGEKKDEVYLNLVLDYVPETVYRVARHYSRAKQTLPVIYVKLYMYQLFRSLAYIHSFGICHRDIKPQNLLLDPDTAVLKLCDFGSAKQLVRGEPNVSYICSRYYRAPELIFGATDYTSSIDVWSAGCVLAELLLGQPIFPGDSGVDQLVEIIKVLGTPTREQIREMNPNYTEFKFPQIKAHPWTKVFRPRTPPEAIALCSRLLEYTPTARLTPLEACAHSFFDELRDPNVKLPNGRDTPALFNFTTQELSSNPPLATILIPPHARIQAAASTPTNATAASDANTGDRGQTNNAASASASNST

Usually pIC50 stands for the IC50 on a negative log10 scale, so that one unit is a factor of ten. With `COc1nccc(C2CC(=O)Nc3n[nH]c(C4CCC4)c32)n1` (stereo not shown) [Example 45, 3-Cyclobutyl-4-(2-methoxy-pyrimidin-4-yl)-2,4,5,7-tetrahydro-pyrazolo[3,4-b]pyridin-6-one], the pIC50 is 8.19.
